# Active and inactive are the calls of the source.
# Legend:
# Paired box protein Pax-8 = Paired box protein Pax-8 (Homo sapiens, UniProt Q06710); assay: inhibitors of PAX8-driven TPO luciferase reporter, dose response, RMG-I cells, cherry-pick (AID 687027); type: functional, cell-based;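 note: luciferase reporter driven by Pax8 target thyroperoxidase promoter measured by SteadyGlo luminescence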
# Protein RecA = biological target: T1, Protein RecA (Mycobacterium tuberculosis, UniProt P9WHJ3); assay: Fluorescence Cell-Free Homogeneous Dose Retest to Identify Inhibitors of RecA-Intein Splicing Activity. [Related pubchem assays (depositor defined):AID2097, AID2223, AID489010, AID492950]; type: functional
# T1 sequence (P9WHJ3 whole entry): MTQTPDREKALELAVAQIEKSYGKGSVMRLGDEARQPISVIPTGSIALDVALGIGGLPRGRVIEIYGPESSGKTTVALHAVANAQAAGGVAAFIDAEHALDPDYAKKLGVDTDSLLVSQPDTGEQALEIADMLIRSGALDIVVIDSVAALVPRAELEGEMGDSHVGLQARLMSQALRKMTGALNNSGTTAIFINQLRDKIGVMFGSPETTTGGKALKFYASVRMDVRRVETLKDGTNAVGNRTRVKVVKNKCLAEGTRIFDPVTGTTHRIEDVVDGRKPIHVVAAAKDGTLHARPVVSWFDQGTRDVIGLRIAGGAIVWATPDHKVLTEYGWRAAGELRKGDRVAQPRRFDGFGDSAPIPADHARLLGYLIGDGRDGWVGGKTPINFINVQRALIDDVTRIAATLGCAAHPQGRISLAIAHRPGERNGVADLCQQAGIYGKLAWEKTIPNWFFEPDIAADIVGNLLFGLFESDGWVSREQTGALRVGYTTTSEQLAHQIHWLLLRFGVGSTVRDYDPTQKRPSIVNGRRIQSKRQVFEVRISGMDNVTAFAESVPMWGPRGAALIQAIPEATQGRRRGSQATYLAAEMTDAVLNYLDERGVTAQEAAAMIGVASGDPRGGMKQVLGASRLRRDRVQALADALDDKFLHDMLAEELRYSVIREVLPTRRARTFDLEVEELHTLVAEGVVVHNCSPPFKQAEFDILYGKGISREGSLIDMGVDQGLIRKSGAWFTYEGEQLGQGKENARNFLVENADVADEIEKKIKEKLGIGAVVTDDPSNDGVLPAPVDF
# BJ [1] = assay: cells; type: functional, cell-based; settings: Homo sapiens
# [2] = cytotoxicity toward DRD oncogenic fibroblasts, dose response, cell-based, non-viral oncogenic, luminescence (AID 1934); type: functional; settings: Homo sapiens
# [3] = non-specific cell cytotoxicity, dose response, cytotoxicity control for PAX8 inhibitor project, plate reader, dry powder samples (AID 743021); type: functional, cell-based
# [4] = growth suppression of beta-catenin-knockout colon cells, dose response, cell-based, HCT116, human colon tumor (AID 1045); type: functional;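 note: HCT116 colon tumor cells with beta catenin knocked out; cells exposed to compound for 60 hours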
# BJ [5] = assay: cytotoxicity toward BJ-TERT fibroblasts, dose response, cell-based, RAS-independent, luminescence (AID 1933); type: functional; settings: Homo sapiens
# [6] = Intein inhibitors as potential Tuberculosis drugs, a cytotoxicity screen. [Related pubchem assays (depositor defined):AID2221, AID2223, AID434968, AID435010, AID449749, AID449750, AID489010]; type: functional
# BJ [7] = assay: cytotoxicity toward BJ-TERT-LT-ST fibroblasts, dose response, cell-based, RAS-independent, luminescence (AID 1935); type: functional; settings: Homo sapiens;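 note: BJ fibroblasts immortalized with TERT plus LT and ST oncogenes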
# BJ [8] = assay: cytotoxicity toward Ras-transformed BJeLR fibroblasts, dose response, cell-based, alamar blue fluorescence, cherrypicked samples (AID 2631); type: functional; settings: Homo sapiens;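 note: confirmatory dose-response assay in RAS-dependent BJ fibroblasts engineered with TERT, LT and ST, with cytotoxicity read by fluorescence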
# [9] = growth suppression of PTEN-null colon cells, dose response, cell-based, HCT116 PTEN knockout (AID 1047); type: functional;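 note: HCT116 colon tumor cells with PTEN knocked out; cells exposed to compound for 60 hours before readout; potency for loss of cell viability measured by luminescence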
# [10] = biological target: T2, Replicative DNA helicase DnaB (Mycobacterium tuberculosis, UniProt P9WMR3); assay: DnaB intein splicing inhibitors, dose response, biochemical, cell-free fluorescence (AID 449749); type: functional
# T2 sequence (P9WMR3 whole entry): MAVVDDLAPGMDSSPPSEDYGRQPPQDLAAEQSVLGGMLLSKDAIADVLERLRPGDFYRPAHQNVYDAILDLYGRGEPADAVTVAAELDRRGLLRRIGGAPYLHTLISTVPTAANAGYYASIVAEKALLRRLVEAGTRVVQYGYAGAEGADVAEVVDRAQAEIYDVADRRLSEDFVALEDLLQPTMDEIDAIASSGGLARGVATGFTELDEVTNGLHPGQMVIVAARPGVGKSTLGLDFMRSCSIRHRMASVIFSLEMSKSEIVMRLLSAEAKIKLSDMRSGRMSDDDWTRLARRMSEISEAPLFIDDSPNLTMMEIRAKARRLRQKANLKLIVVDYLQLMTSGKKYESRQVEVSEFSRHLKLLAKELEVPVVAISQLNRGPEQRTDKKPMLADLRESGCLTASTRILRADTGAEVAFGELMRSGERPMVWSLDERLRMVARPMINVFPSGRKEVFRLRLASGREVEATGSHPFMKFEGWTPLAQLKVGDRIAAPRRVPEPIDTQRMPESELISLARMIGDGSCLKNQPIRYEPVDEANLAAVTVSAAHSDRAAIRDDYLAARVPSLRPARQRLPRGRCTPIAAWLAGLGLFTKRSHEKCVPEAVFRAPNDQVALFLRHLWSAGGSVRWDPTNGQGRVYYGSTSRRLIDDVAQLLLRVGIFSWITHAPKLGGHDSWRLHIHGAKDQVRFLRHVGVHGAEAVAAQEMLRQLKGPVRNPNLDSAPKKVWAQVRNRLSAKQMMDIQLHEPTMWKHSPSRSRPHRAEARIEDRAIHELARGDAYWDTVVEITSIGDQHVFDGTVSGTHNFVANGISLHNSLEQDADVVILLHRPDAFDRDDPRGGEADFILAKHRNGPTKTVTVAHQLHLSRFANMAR
# [11] = HEp-2 cell cytotoxicity, dose response, cytotoxicity control for RSV inhibitor project, HTS (AID 2410); type: functional; settings: human respiratory syncytial virus
# [12] = biological target: Intestinal-type alkaline phosphatase (Mus musculus, UniProt P24822); assay: PubChem AID 488875; type: functional
# Sequence of Intestinal-type alkaline phosphatase (Mus musculus, UniProt P24822) (P24822 whole entry): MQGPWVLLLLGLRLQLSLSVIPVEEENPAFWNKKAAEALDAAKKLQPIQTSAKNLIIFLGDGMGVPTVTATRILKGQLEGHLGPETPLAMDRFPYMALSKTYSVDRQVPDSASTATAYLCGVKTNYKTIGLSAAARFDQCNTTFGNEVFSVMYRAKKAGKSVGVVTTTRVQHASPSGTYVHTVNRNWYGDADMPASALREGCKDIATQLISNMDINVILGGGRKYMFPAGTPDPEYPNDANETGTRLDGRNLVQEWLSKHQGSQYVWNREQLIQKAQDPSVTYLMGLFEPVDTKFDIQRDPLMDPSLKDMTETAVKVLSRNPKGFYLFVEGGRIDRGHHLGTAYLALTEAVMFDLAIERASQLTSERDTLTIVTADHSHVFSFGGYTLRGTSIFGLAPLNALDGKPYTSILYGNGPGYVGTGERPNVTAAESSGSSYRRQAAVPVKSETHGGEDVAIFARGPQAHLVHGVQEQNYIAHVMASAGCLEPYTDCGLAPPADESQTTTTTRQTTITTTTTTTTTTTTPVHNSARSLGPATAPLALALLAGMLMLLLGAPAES
# [13] = biological target: T3, Intestinal-type alkaline phosphatase (Homo sapiens, UniProt P09923); assay: human IAP activators, dose response, biochemical, luminescent, uHTS hits, set 2 (AID 488817); type: functional;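 note: potency of activators that raise enzyme activity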
# T3 sequence (P09923 whole entry): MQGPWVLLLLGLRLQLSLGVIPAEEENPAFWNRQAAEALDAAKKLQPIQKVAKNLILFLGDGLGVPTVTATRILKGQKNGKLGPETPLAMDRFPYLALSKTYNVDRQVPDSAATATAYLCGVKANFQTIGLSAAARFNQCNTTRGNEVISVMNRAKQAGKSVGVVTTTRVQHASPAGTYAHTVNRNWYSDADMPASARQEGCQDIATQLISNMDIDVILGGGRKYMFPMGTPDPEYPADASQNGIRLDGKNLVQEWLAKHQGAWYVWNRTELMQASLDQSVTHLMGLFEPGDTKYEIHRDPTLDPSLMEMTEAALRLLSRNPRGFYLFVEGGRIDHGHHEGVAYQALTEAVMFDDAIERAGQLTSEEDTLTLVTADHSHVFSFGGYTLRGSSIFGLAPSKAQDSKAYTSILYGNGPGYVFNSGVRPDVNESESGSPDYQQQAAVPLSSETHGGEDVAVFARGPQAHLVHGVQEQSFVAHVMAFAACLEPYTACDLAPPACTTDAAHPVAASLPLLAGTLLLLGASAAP
# [14] = biological target: T4, Alkaline phosphatase, tissue-nonspecific isozyme (Homo sapiens, UniProt P05186); assay: TNAP enzyme activators, dose response, selectivity assay for human IAP activator project, biochemical, TNAP isozyme, human IAP uHTS hits (AID 488886); type: functional;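 note: potency of compounds raising TNAP activity as a selectivity check on IAP activators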
# T4 sequence (P05186 whole entry): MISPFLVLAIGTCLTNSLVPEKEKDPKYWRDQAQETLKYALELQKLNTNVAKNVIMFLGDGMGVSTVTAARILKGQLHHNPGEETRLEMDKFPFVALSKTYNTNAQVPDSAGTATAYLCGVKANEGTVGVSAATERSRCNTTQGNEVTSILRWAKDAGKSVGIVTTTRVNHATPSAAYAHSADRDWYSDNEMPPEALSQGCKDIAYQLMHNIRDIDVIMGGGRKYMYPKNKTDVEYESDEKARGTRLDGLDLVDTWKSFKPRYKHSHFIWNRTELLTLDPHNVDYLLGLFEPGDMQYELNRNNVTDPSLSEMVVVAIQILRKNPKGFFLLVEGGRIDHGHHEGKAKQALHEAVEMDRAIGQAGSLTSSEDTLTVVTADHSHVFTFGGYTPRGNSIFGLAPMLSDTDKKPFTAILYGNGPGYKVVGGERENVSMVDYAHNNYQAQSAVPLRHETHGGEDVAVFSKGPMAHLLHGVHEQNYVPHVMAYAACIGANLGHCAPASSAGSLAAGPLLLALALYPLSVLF
# [15] = biological target: T3, Intestinal-type alkaline phosphatase; assay: human intestinal alkaline phosphatase activators, dose response, biochemical, luminescence, uHTS hits (AID 463120); type: functional
# [16] = biological target: Delta-type opioid receptor (Homo sapiens, UniProt P41143); assay: SAR Analysis of Antagonists of the DOR Receptor using an Image-Based Assay - Set 3. [Related pubchem assays (depositor defined):AID1777, AID1785]; type: functional;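 note: U2OS cells expressing DOR1 and beta-arrestin GFP stimulated with 100 nM SNC80; imaging of GFP-tagged beta-arrestin moving into spots after receptor activation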
# Sequence of Delta-type opioid receptor (P41143 whole entry): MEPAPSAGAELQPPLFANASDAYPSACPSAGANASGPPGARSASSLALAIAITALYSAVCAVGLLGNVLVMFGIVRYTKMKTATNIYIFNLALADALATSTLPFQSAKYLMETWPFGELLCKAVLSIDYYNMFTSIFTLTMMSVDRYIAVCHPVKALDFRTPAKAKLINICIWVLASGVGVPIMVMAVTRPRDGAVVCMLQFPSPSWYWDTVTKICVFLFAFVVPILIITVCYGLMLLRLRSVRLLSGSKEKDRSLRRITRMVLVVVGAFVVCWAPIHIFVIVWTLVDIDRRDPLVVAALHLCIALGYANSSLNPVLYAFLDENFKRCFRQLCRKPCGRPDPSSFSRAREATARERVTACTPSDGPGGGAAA
# Mu-type opioid receptor = Mu-type opioid receptor (Homo sapiens, UniProt P35372); assay: SAR Analysis of Antagonists of the MOR Receptor using an Image-Based Assay - Set 3. [Related pubchem assays (depositor defined):AID1777, AID1785, AID1786, AID1966, AID2133, AID2136, AID2284, AID2285, AID2420]; type: functional
# Sequence of Mu-type opioid receptor (P35372 whole entry): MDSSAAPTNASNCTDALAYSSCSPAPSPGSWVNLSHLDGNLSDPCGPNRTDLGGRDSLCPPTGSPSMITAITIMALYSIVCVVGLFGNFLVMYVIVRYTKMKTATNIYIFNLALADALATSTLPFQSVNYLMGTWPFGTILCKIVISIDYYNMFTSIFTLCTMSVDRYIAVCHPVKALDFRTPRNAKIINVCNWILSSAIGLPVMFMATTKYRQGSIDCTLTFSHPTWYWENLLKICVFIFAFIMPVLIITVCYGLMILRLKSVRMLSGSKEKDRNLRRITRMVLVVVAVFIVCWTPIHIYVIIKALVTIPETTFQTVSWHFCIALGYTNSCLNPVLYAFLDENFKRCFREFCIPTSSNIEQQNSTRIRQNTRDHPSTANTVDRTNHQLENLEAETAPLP
# [17] = biological target: T5, Kappa-type opioid receptor (Homo sapiens, UniProt P41145); assay: SAR analysis of Antagonists of the Kappa Opioid Receptor (KOR) using an Image-Based Assay - Set 4. [Related pubchem assays (depositor defined):AID1777, AID1785]; type: functional
# T5 sequence (P41145 whole entry): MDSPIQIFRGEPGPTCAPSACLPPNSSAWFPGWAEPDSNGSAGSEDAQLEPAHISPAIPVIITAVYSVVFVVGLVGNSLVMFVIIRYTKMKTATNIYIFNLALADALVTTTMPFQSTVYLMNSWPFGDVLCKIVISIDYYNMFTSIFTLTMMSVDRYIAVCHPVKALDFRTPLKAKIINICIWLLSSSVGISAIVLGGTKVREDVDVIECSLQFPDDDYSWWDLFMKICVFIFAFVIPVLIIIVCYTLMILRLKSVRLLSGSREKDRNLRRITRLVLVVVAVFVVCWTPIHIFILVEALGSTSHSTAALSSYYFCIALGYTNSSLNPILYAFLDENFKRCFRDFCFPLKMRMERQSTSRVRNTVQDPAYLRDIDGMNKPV
# [18] = biological target: T5, Kappa-type opioid receptor; assay: SAR analysis of small molecule antagonists of the kappa opioid receptor via a luminescent beta-arrestin assay - Set 3. [Related pubchem assays (depositor defined):AID1777, AID1778, AID1785, AID1786, AID1966, AID2133, AID2136, AID2285, AID2495]; type: functional
# Sequence of Paired box protein Pax-8 (Q06710 whole entry): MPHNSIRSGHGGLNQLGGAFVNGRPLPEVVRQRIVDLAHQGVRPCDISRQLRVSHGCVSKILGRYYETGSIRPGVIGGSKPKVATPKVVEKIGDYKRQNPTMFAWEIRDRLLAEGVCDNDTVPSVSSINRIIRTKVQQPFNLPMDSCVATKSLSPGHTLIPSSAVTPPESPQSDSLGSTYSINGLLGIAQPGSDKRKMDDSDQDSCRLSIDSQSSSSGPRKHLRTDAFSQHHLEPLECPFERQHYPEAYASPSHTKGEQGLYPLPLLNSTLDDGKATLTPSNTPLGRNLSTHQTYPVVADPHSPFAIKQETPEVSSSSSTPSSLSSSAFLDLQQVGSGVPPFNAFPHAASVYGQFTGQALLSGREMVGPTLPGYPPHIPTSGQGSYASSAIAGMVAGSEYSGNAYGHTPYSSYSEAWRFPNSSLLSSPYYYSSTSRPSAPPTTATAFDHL
compound,measurement,setting,value
COc1ccc(N(C(=O)CCl)C(C(=O)NCCc2ccccc2)c2cccs2)cc1 (stereo unspecified),AC50,Paired box protein Pax-8,2440 nM (active)
same,EC50,Protein RecA,327 nM (active)
same,EC50,BJ [1],2970 nM (inconclusive)
same,EC50,[2],2620 nM (active)
same,AC50,[3],4640 nM (active)
same,EC50,[4],986 nM (active)
same,EC50,BJ [5],1220 nM (active)
same,CC50,[6],430 nM (active)
same,EC50,BJ [7],4610 nM (active)
same,EC50,BJ [8],2690 nM (active)
same,EC50,[9],1100 nM (active)
same,AC50,[10],2640 nM (active)
COc1ccccc1CCNC(=O)C1CCN(c2nnc(C)c3c(C)n(-c4ccc(C)cc4)nc23)CC1,CC50,[11],17400 nM (active)
same,EC50,[12],> 100000 nM (inactive)
same,EC50,[13],65500 nM (active)
same,EC50,[14],53200 nM (active)
same,EC50,[15],23100 nM (active)
COc1ccc(N2CCN(CCCNC(=O)Cn3c(=O)c4cccn4c4cc(Br)cnc43)CC2)cc1,IC50,[16],> 32000 nM (inactive)
same,IC50,Mu-type opioid receptor,10300 nM (inactive)
same,IC50,[17],693 nM (active)
same,IC50,[18],3050 nM (active)

# From ChEMBL document CHEMBL1201862, “PubChem BioAssay data set” (2004)
